Like-named read-outs stand apart in the source and are kept apart here.
Target: Full-length inactive AKT1 (Homo sapiens, UniProt P31749)
Test: Inactive Akt Alpha Screen Assay
Type: biochemical
Method in brief: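 AlphaScreen read-out (excitation 640 nm, emission 570 nm) after 90 min incubation at room temperature in the dark. Signal comes from crosstide phosphorylation by AKT1, which was activated by added PDK1, MAPKAPK2, ATP and lipid vesicles, captured via phospho-AKT substrate antibody and streptavidin beads.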

[1] = values not marked with "*", read-out: Akt1 IC50, (AlphaScreen)
[2] = AlphaScreen assay (values not marked with *), read-out: Akt1 IC50, (AlphaScreen) (μM) (or if marked with “*” HTRF assay)

Sequence of Full-length inactive AKT1 (P31749 whole entry): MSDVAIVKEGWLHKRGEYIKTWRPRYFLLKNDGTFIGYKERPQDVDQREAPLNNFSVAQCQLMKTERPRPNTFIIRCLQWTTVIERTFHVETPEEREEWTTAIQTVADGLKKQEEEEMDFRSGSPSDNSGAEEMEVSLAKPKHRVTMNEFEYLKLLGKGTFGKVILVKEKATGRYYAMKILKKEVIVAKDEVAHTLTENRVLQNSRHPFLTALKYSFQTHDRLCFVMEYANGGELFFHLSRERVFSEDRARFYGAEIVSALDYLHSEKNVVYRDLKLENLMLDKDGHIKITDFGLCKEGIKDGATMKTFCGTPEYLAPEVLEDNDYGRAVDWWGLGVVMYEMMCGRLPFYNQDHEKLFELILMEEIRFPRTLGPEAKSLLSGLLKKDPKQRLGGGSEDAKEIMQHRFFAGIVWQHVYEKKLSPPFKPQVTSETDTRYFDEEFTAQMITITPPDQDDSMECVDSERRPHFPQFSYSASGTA

| Structure (SMILES) | IC50 [1] [µM] | IC50 [2] [µM] |
| --- | --- | --- |
| Nc1ncccc1-c1nc2ccc(-c3cc4ccccc4o3)nc2n1-c1ccc(C2(N)CCC2)cc1 [Example 423, 3-{3-[4-(1-aminocyclobutyl)phenyl]-5-(1-benzofuran-2-yl)-3H-imidazo[4,5-b]pyridin-2-yl}pyridin-2-amine] | 0.0066 | – |
| Nc1ncccc1-c1nc2ccc(-c3ccc(O)cc3)nc2n1-c1ccc(C2(N)CCC2)cc1 [Example 424, 4-{3-[4-(1-aminocyclobutyl)phenyl]-2-(2-aminopyridin-3-yl)-3H-imidazo[4,5-b]pyridin-5-yl}phenol] | 0.0093 | – |
| Nc1ncccc1-c1nc2ccc(-c3nccs3)nc2n1-c1ccc(C2(N)CCC2)cc1 [Example 425, 3-{3-[4-(1-aminocyclobutyl)phenyl]-5-(1,3-thiazol-2-yl)-3H-imidazo[4,5-b]pyridin-2-yl}pyridin-2-amine] | 0.01 | – |
| Nc1ncccc1-c1nc2ccc(-c3cccc(OC(F)(F)F)c3)nc2n1-c1ccc(C2(N)CCC2)cc1 [Example 426, 3-{3-[4-(1-aminocyclobutyl)phenyl]-5-[3-(trifluoromethoxy)phenyl]-3H-imidazo[4,5-b]pyridin-2-yl}pyridin-2-amine] | 0.005 | – |
| Nc1ncccc1-c1nc2ccc(-c3ccsc3)nc2n1-c1ccc(C2(N)CCC2)cc1 [Example 427, 3-{3-[4-(1-aminocyclobutyl)phenyl]-5-(3-thienyl)-3H-imidazo[4,5-b]pyridin-2-yl}pyridin-2-amine] | 0.01 | – |
| Nc1ncccc1-c1nc2ccc(-c3cccc(N4CCCCC4)c3)nc2n1-c1ccc(C2(N)CCC2)cc1 [Example 431, 3-{3-[4-(1-aminocyclobutyl)phenyl]-5-(3-piperidin-1-ylphenyl)-3H-imidazo[4,5-b]pyridin-2-yl}pyridin-2-amine] | 0.018 | – |
| CNC(=O)c1cc(F)cc(-c2ccc3nc(-c4cccnc4N)n(-c4ccc(C5(N)CCC5)cc4)c3n2)c1 [Example 432, 3-{3-[4-(1-aminocyclobutyl)phenyl]-2-(2-aminopyridin-3-yl)-3H-imidazo[4,5-b]pyridin-5-yl}-5-fluoro-N-methylbenzamide] | – | 0.0064 |
| CN1CCOc2cc(-c3ccc4nc(-c5cccnc5N)n(-c5ccc(C6(N)CCC6)cc5)c4n3)ccc21 [Example 433, 3-{3-[4-(1-aminocyclobutyl)phenyl]-5-(4-methyl-3,4-dihydro-2H-1,4-benzoxazin-7-yl)-3H-imidazo[4,5-b]pyridin-2-yl}pyridin-2-amine] | – | 0.0018 |
| CN1C(=O)COc2ccc(-c3ccc4nc(-c5cccnc5N)n(-c5ccc(C6(N)CCC6)cc5)c4n3)cc21 [Example 438, 6-{3-[4-(1-aminocyclobutyl)phenyl]-2-(2-aminopyridin-3-yl)-3H-imidazo[4,5-b]pyridin-5-yl}-4-methyl-2H-1,4-benzoxazin-3(4H)-one] | – | 0.0079 |
| Nc1ncccc1-c1nc2ccc(-c3ccnc(N4CCOCC4)c3)nc2n1-c1ccc(C2(N)CCC2)cc1 [Example 439, 3-{3-[4-(1-aminocyclobutyl)phenyl]-5-(2-morpholin-4-ylpyridin-4-yl)-3H-imidazo[4,5-b]pyridin-2-yl}pyridin-2-amine] | – | 0.0026 |
| CCNC(=O)c1cccc(-c2ccc3nc(-c4cccnc4N)n(-c4ccc(C5(N)CCC5)cc4)c3n2)c1 [Example 441, 3-{3-[4-(1-aminocyclobutyl)phenyl]-2-(2-aminopyridin-3-yl)-3H-imidazo[4,5-b]pyridin-5-yl}-N-ethylbenzamide] | – | 0.0066 |
| Nc1ncccc1-c1nc2ccc(-c3cccc4[nH]ncc34)nc2n1-c1ccc(C2(N)CCC2)cc1 [Example 442, 3-{3-[4-(1-aminocyclobutyl)phenyl]-5-(1H-indazol-4-yl)-3H-imidazo[4,5-b]pyridin-2-yl}pyridin-2-amine] | – | 0.0049 |
| Nc1ncccc1-c1nc2ccc(-c3cccc(O)c3F)nc2n1-c1ccc(C2(N)CCC2)cc1 [Example 445, 3-{3-[4-(1-aminocyclobutyl)phenyl]-2-(2-aminopyridin-3-yl)-3H-imidazo[4,5-b]pyridin-5-yl}-2-fluorophenol] | – | 0.014 |
| Nc1ncccc1-c1nc2ccc(-c3c[nH]c4ccncc34)nc2n1-c1ccc(C2(N)CCC2)cc1 [Example 446, 3-{3-[4-(1-aminocyclobutyl)phenyl]-5-(1H-pyrrolo[3,2-c]pyridin-3-yl)-3H-imidazo[4,5-b]pyridin-2-yl}pyridin-2-amine] | – | 0.0089 |
| Nc1ncccc1-c1nc2ccc(-c3ccc(O)nc3)nc2n1-c1ccc(C2(N)CCC2)cc1 [Example 447, 5-{3-[4-(1-aminocyclobutyl)phenyl]-2-(2-aminopyridin-3-yl)-3H-imidazo[4,5-b]pyridin-5-yl}pyridin-2-ol] | – | 0.045 |
| Nc1ncccc1-c1nc2ccc(-c3ccnc(O)c3)nc2n1-c1ccc(C2(N)CCC2)cc1 [Example 448, 4-{3-[4-(1-aminocyclobutyl)phenyl]-2-(2-aminopyridin-3-yl)-3H-imidazo[4,5-b]pyridin-5-yl}pyridin-2-ol] | – | 0.0039 |
| Nc1ncccc1-c1nc2ccc(-c3cccc(N4CCCC4)c3)nc2n1-c1ccc(C2(N)CCC2)cc1 [Example 449, 3-{3-[4-(1-aminocyclobutyl)phenyl]-5-(3-pyrrolidin-1-ylphenyl)-3H-imidazo[4,5-b]pyridin-2-yl}pyridin-2-amine] | – | 0.0023 |
| Nc1ncccc1-c1nc2ccc(-c3cccc(N4CCOCC4)n3)nc2n1-c1ccc(C2(N)CCC2)cc1 [Example 451, 3-{3-[4-(1-aminocyclobutyl)phenyl]-5-(6-morpholin-4-ylpyridin-2-yl)-3H-imidazo[4,5-b]pyridin-2-yl}pyridin-2-amine] | – | 0.0071 |
| Nc1ncccc1-c1nc2ccc(-c3ccc4[nH]ccc4c3)nc2n1-c1ccc(C2(N)CCC2)cc1 [Example 452, 3-{3-[4-(1-aminocyclobutyl)phenyl]-5-(1H-indol-5-yl)-3H-imidazo[4,5-b]pyridin-2-yl}pyridin-2-amine] | – | 0.0041 |
| Nc1ncccc1-c1nc2ccc(-c3ccc4c(c3)CC(=O)N4)nc2n1-c1ccc(C2(N)CCC2)cc1 [Example 453, 5-{3-[4-(1-aminocyclobutyl)phenyl]-2-(2-aminopyridin-3-yl)-3H-imidazo[4,5-b]pyridin-5-yl}-1,3-dihydro-2H-indol-2-one] | – | 0.0028 |
| Nc1ncccc1-c1nc2ccc(-c3cccc4c3CC(=O)N4)nc2n1-c1ccc(C2(N)CCC2)cc1 [Example 454, 4-{3-[4-(1-aminocyclobutyl)phenyl]-2-(2-aminopyridin-3-yl)-3H-imidazo[4,5-b]pyridin-5-yl}-1,3-dihydro-2H-indol-2-one] | – | 0.0094 |

Other lines, results leading:

| IC50 [1] [µM] | IC50 [2] [µM] | Structure (SMILES) |
| --- | --- | --- |
| 0.0058 | – | COc1cc(-c2ccc3nc(-c4cccnc4N)n(-c4ccc(C5(N)CCC5)cc4)c3n2)ccc1F [Example 428, 3-{3-[4-(1-aminocyclobutyl)phenyl]-5-(4-fluoro-3-methoxyphenyl)-3H-imidazo[4,5-b]pyridin-2-yl}pyridin-2-amine] |
| 0.0095 | – | COc1ccc(-c2ccc3nc(-c4cccnc4N)n(-c4ccc(C5(N)CCC5)cc4)c3n2)cc1O [Example 429, 5-{3-[4-(1-aminocyclobutyl)phenyl]-2-(2-aminopyridin-3-yl)-3H-imidazo[4,5-b]pyridin-5-yl}-2-methoxyphenol] |
| 0.0038 | – | COc1cccc(-c2ccc3nc(-c4cccnc4N)n(-c4ccc(C5(N)CCC5)cc4)c3n2)c1O [Example 430, 2-{3-[4-(1-aminocyclobutyl)phenyl]-2-(2-aminopyridin-3-yl)-3H-imidazo[4,5-b]pyridin-5-yl}-6-methoxyphenol] |
| – | 0.005 | Nc1ncccc1-c1nc2ccc(-c3ccc(O)c(F)c3)nc2n1-c1ccc(C2(N)CCC2)cc1 [Example 434, 4-{3-[4-(1-aminocyclobutyl)phenyl]-2-(2-aminopyridin-3-yl)-3H-imidazo[4,5-b]pyridin-5-yl}-2-fluorophenol] |
| – | 0.01 | Nc1ncccc1-c1nc2ccc(-c3cc(O)cc(F)c3)nc2n1-c1ccc(C2(N)CCC2)cc1 [Example 435, 3-{3-[4-(1-aminocyclobutyl)phenyl]-2-(2-aminopyridin-3-yl)-3H-imidazo[4,5-b]pyridin-5-yl}-5-fluorophenol] |
| – | 0.0078 | Nc1ncccc1-c1nc2ccc(-c3ccc(F)c(O)c3)nc2n1-c1ccc(C2(N)CCC2)cc1 [Example 436, 5-{3-[4-(1-aminocyclobutyl)phenyl]-2-(2-aminopyridin-3-yl)-3H-imidazo[4,5-b]pyridin-5-yl}-2-fluorophenol] |
| – | 0.014 | Nc1ncccc1-c1nc2ccc(-c3cc(O)ccc3F)nc2n1-c1ccc(C2(N)CCC2)cc1 [Example 437, 3-{3-[4-(1-aminocyclobutyl)phenyl]-2-(2-aminopyridin-3-yl)-3H-imidazo[4,5-b]pyridin-5-yl}-4-fluorophenol] |
| – | 0.0054 | CNC(=O)c1cc(-c2ccc3nc(-c4cccnc4N)n(-c4ccc(C5(N)CCC5)cc4)c3n2)ccc1F [Example 440, 5-{3-[4-(1-aminocyclobutyl)phenyl]-2-(2-aminopyridin-3-yl)-3H-imidazo[4,5-b]pyridin-5-yl}-2-fluoro-N-methylbenzamide] |
| – | 0.012 | Cc1ccc(-c2ccc3nc(-c4cccnc4N)n(-c4ccc(C5(N)CCC5)cc4)c3n2)cc1O [Example 443, 5-{3-[4-(1-aminocyclobutyl)phenyl]-2-(2-aminopyridin-3-yl)-3H-imidazo[4,5-b]pyridin-5-yl}-2-methylphenol] |
| – | 0.0068 | COc1cccc(-c2ccc3nc(-c4cccnc4N)n(-c4ccc(C5(N)CCC5)cc4)c3n2)c1C#N [Example 444, 2-{3-[4-(1-aminocyclobutyl)phenyl]-2-(2-aminopyridin-3-yl)-3H-imidazo[4,5-b]pyridin-5-yl}-6-methoxybenzonitrile] |
| – | 0.0072 | CNC(=O)c1ccc(-c2ccc3nc(-c4cccnc4N)n(-c4ccc(C5(N)CCC5)cc4)c3n2)cc1F [Example 450, 4-{3-[4-(1-aminocyclobutyl)phenyl]-2-(2-aminopyridin-3-yl)-3H-imidazo[4,5-b]pyridin-5-yl}-2-fluoro-N-methylbenzamide] |

From US8501770B2 (ArQule, Inc., priority 2009, dated 2013)
